# Experiments:
# Format in all cases: cell-based
# [1] = tested on: SARS-CoV-2 Wuhan-like Lineage A (Mpro Δ23G/T45I); conditions: for IC50: read-out: Mean of IC50 values ± SD
# [2] = tested on: SARS-CoV-2 Wuhan-like Lineage B (Mpro M49L)
# [3] = tested on: SARS-CoV-2 BA.5 Lineage C (Mpro S144A); conditions: for IC50: read-out: Mean of IC50 values ± SD
# [4] = tested on: SARS-CoV-2 BA.5 Lineage D (Mpro P252L)
# [5] = read-out: Mean of IC50 values ± SD
Compound,Fold-change relative to wild-type [1] [fold],IC50 [1] [µM],Fold-change relative to wild-type [2] [fold],"IC50 [2, 5] [µM]",Fold-change relative to wild-type [3] [fold],IC50 [3] [µM],Resistance level (class by IC50 fold-change) [4],Resistance level (class by IC50 fold-change) [2],Fold-change relative to wild-type [4] [fold],"IC50 [4, 5] [µM]"
Cn1cnc(Cn2c(=O)[nH]/c(=N\c3cc4cn(C)nc4cc3Cl)n(Cc3cc(F)c(F)cc3F)c2=O)n1 [ensitrelvir],32.06,16.7 ± 2.29,60.08,31.2 ± 1.06,28.84,25.4 ± 8.74,no meaningful shift,,,
CC(C)(C)[C@H](NC(=O)C(F)(F)F)C(=O)N1C[C@H]2[C@@H]([C@H]1C(=O)N[C@H](C#N)C[C@@H]1CCNC1=O)C2(C)C [nirmatrelvir],0.18,1.4 ± 0.1,,,7.60,37 ± 0.9,,no meaningful shift,3.83,18.6 ± 0.48
remdesivir,,,,,,,,,3.41,

# Source: PMC12663368 (Nature Communications, 2025)
